# Results: patent publication US8148405B2, “Salt I” (AstraZeneca AB, priority 2005, dated 2012)
# Where “and” joins values, the source holds several entries; their conditions need not be identical. Equal values may be shown once. Where a name gives a salt, the structure may show the parent alone. Marks after values point to notes of the source that are not given here.
# How the values were obtained:
# [1] = Hygroscopicity determination (vapor sorption, SGA-100); assay type: physicochemical; conditions: room temperature (25° C.)
# Description: The weight change of a test sample at room temperature (25° C.) and at 80% relative humidity (RH) were investigated by recording adsorption-desorption isotherms using a symmetric vapor-sorption analyser SGA-100 (VTI Corporation) using different methods, the main features being: a single sorption/desorption cycle from 0 to 90% RH in 10% RH steps with a dm/dt trigger value of 0.002%, (dm/dt=change in mass with time—when the balance stability is within this value the next step is automatically started, however, if those conditions are not achieved there is a default maximum time for each step of 6 hours). Approximately 2 to 10 mg of the test sample was placed in a sample holder and exposed to different relative humidities.
# [2] = Estimated solubility of the salt in organic solvents; assay type: physicochemical; conditions: for solubility: organic solvent or mixture
# Description: (b) The Form B salt described in (a) above was also prepared by dissolving, in a vial, 20% w of a sample of the benzoate salt prepared by the method of Example 1(b) (Form A) in a solvent such as methanol (>20 mg/ml), ethanol (>20 mg/ml), n-propanol (>20 mg/ml), isopropanol (8.5 mg/ml) or acetone (9.6 mg/ml). The figures in brackets indicate the estimated solubility of the salt in these solvents. The vial was then sealed and the suspension was homogenised at ambient temperature (20° C.) using a magnet. Stirring and temperature were maintained for a period of at least 7 days after which time a sample of the material obtained was dried and tested by XRPD. XRPD confirmed that there had been complete transformation of Form A to Form B.
# human CCR1 = biological target: T1, human CCR1 (Homo sapiens, UniProt P32246); assay: Human CCR1 binding assay ([125I] MIP-1α displacement, HEK-CCR1 membranes)
# T1 construct: expressed in transfected cells; membranes
# T1 sequence (P32246 1-355): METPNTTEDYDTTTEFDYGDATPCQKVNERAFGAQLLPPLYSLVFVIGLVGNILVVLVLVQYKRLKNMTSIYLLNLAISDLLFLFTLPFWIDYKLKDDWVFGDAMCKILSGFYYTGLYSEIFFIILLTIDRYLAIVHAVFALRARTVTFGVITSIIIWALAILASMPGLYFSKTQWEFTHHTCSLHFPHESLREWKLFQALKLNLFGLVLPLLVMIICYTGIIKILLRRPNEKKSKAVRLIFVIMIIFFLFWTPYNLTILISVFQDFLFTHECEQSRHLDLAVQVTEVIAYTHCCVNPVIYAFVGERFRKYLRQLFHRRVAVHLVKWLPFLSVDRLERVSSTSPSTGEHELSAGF
# Description: HEK293 cells, from ECACC, stably expressing recombinant human CCR1 (HEK-CCR1) were used to prepare cell membranes containing CCR1. […] The concentration of membranes of each batch was adjusted to 10% specific binding of 33 pM [^125I] MIP-1α.
# 100 μL of HEK-CCR1 membranes diluted in assay buffer pH 7.4 (137 mM NaCl (Merck, Cat No 1.06404), 5.7 mM Glucose (Sigma, Cat No G5400), 2.7 mM KCl (Sigma, Cat No P-9333), 0.36 mM NaH2PO4×H2O (Merck, Cat No 1.06346), 10 mM HEPES (Sigma, Cat No H3375), 0.1% (w/v) Gelatine (Sigma, Cat No G2625)) with the addition of 17500 units/L Bacitracin (Sigma, Cat No B 1025) were added to each well of the 96 well filter plate (0.45 μm opaque Millipore cat no MHVB N4550). […] 12 μl assay buffer with 10% DMSO was added to certain wells (without compound) to detect maximal binding (B0).
# 12 μL [^125I] MIP-1α, diluted in assay buffer to a final concentration in the wells of 33 pM, was added to all wells. The plates with lid were then incubated for 1.5 hrs at room temperature. After incubation the wells were emptied by vacuum filtration (MultiScreen Resist Vacuum Manifold system, Millipore) and washed once with 200 μl assay buffer. After the wash, all wells received an addition of 50 μL of scintillation fluid (OptiPhase “Supermix”, Wallac Oy, Turko, Finland). Bound [^125I] MIP-1α was measured using a Wallac Trilux 1450 MicroBeta counter. […]
# [3] = Evaluation of the deaggregation properties of micronised salt (TSI Aerodynamic Particle Sizer); assay type: physicochemical
# Description: This screening study was intended to give some estimation regarding the deaggregation properties of anhydrous N-{2-[((2S)-3-{[1-(4-chlorobenzyl)piperidin-4-yl]amino}-2-hydroxy-2-methylpropyl)oxy]-4-hydroxyphenyl}acetamide benzoate salt, form B (referred to in the remainder of this example as “Form B salt”. The results were compared to the results from an established product powder, the Pulmicort® Turbuhaler® formulation, which was tested identically.
# Form B salt was micronised in order to obtain a particle size of less than […]. Pulmicort® Turbuhaler® powder was emptied from the Pulmicort® Turbuhaler®. The latter formulation consists of micronised Budesonide powder that is spheronised into small pellets. The micronization of the Form B salt was performed in a spiral jet mill. Within the inner annular space of the jet mill there is a spiral classification. Fine particles will pass through this classification zone and out through a cyclone at the bottom of the mill. The fraction captured in the exhaust filter of the mill was discarded.
# For deaggregation of the powders (both for Pulmicort® Turbuhaler® formulation and the Form B salt), the powders were scrape filled into a simple inhaler device comprising an L-shaped cylindrical channel, comprising a vertical component and a horizontal component.
# A Turbuhaler® mouthpiece was fastened to the end of the horizontal component to promote deaggregation of the powder, and the powder to be tested was placed via the vertical channel into the bend of the channel (i.e. the corner of the L-shaped channel). An airflow pulse (see below) then activated the airflow through the vertical component of the channel, entraining the powder located in the bend, and the air-particle mixture is thereafter moved through the horizontal component of the cylinder and finally passed through the Turbuhaler® mouthpiece.
# After leaving the Turbuhaler® mouthpiece, the aerosol was transferred to a TSI Aerodynamic Particle Sizer (APS®) with Impactor Inlet 3306 set-up where the aerosol cloud was analysed for its aerodynamic properties and fine particle fraction. The APS set-up was arranged in such a way as to allow withdrawal of doses at optional airflows, followed by counting and aerodynamic classification (ca. 0.3-20 μm) of the particles on a particle by particle basis. Briefly, between the USP throat and the 3306 Impacter Inlet, a three-way pneumatic valve and an NGI pre-separator was positioned. In addition, a tube to a vacuum source via a timer-controlled solenoid valve (Triggor Box) was positioned between the valve and the pre-separator in a T-joint fashion. A short airflow pulse is then generated through the inhaler, USP throat, and pre-separator using the Triggor box. After the end of the air pulse, the pneumatic valve switches so that the aerosol cloud in the pre-separator is drawn into the APS via the 3306 Impacter Inlet for aerodynamic assessment.
# Each dose was withdrawn with an airflow pulse of duration 0.4 seconds with maximum airflow at 60 lpm, followed by sampling into the APS instrument. The sampling time in the APS software was set to 20 seconds. The result parameters from the APS were mass median aerodynamic diameter (MMAD), geometric standard deviation (GSD), and a measure of the dose amount (particle counting data converted to mass data using particle density=1) called fine particle dose (FPD).
# The two first doses (for each formulation) were released and measured gravimetrically. The mean value of these gravimetric doses, denoted “metered doses” or loaded dose, were used for normalisation of the (FPD), which gives a measure of the fine particle fraction (FPF). The FPF can therefore be used for direct comparison between the two powder formulations (for the instrument set up used). The limit for fine particles was set to an aerodynamic particle size of 7 μm. Seven and five doses were then analysed with the APS for Pulmicort® Turbuhaler® formulation and for Form B salt, respectively. […]
structure (smiles),measurement,setting,value
"CC(=O)Nc1ccc(O)cc1OC[C@@](C)(O)CNC1CCN(Cc2ccc(Cl)cc2)CC1 [Form A, N-{2-[((2S)-3-{[1-(4-chlorobenzyl)piperidin-4-yl]amino}-2-hydroxy-2-methylpropyl)oxy]-4-hydroxyphenyl}acetamide benzoate]",Water Uptake (% w/w) at 80% RH,[1]; listed as Anhydrous Form A,<2 % w/w
same,estimated solubility,[2]; acetone,9.6 mg/mL
same,solubility,[2]; ethanol,> 20 mg/mL
same,estimated solubility,[2]; isopropanol,8.5 mg/mL
same,solubility,[2]; methanol,> 20 mg/mL
same,solubility,[2]; n-propanol,> 20 mg/mL
CC(=O)Nc1ccc(O)cc1OC[C@@](C)(O)CNC1CCN(Cc2ccc(Cl)cc2)CC1 [N-{2-[((2S)-3-{[1-(4-chlorobenzyl)piperidin-4-yl]amino}-2-hydroxy-2-methylpropyl)oxy]-4-hydroxyphenyl}acetamide ditrifluoroacetate],IC50,human CCR1,< 50 nM
"CC(=O)Nc1ccc(O)cc1OC[C@@](C)(O)CNC1CCN(Cc2ccc(Cl)cc2)CC1 [Form B salt, N-{2-[((2S)-3-{[1-(4-chlorobenzyl)piperidin-4-yl]amino}-2-hydroxy-2-methylpropyl)oxy]-4-hydroxyphenyl}acetamide benzoate]",Water Uptake (% w/w) at 80% RH,[1]; listed as Anhydrous Form B,<0.8 % w/w
same,Normalized FPF (mean FPF Form B salt/mean FPF Pulmicort Turbuhaler formulation),[3],164%^a
same,FPF compared with Pulmicort Turbuhaler formulation,[3]; in words,generally higher
same,de-aggregation properties (conclusion),[3]; in words,advantageous de-aggregation properties
same,FPD (fine particle dose),[3]; mean of doses,182 µg
same,MMAD (mass median aerodynamic diameter),[3]; mean of doses,2.16 μm
same,MMAD (mass median aerodynamic diameter),"[3]; single dose, airflow pulse 0.4 seconds, 60 lpm",2.28 μm and 2.12 μm and 2.20 μm and 2.10 μm and 2.11 μm
